Assay results reported in patent publication US11390604B2 (Hoffmann-La Roche Inc., priority 2019, dated 2022).
Structures can show the parent of a compound that is named as a salt.

The molecules below were run on Acinetobacter baumannii ATCC 17961 (assay: Antimicrobial susceptibility testing: 90% growth inhibitory concentration (IC90) determination). Conditions: ATCC17961, Acinetobacter baumannii ATCC 17961, Iso-Sensitest broth, read-out: ATCC 17961 IC90.
Format: cell-based
Method in brief: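 Growth was followed kinetically by OD600 at 20-min intervals for 16 h at 35±2 °C, with ~5×10^5 CFU/ml in Iso-Sensitest broth. Compounds were tested as twofold dilutions (e.g. 50–0.097 μM final). The concentration giving 90% inhibition of log-phase growth was reported.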

In order of falling IC90:
1. CCc1cc(NC(=O)c2ncc(-c3cn(CC(F)F)nc3C(F)(F)F)n2C)ccc1C(=O)N1CCN(C(=O)C2CCNCC2)CC1 [Example 154, 5-[1-(2,2-difluoroethyl)-3-(trifluoromethyl)pyrazol-4-yl]-N-[3-ethyl-4-[4-(piperidine-4-carbonyl)piperazine-1-carbonyl]phenyl]-1-methylimidazole-2-carboxamide;formic acid]  955 nM
2. C[C@H](N)C(=O)N1CCN(C(=O)c2ccc(NC(=O)c3ncc(-c4cn(Cc5cccnc5)nc4C(F)(F)F)n3C)cc2Cl)CC1 [Example 62, N-[4-[4-[(2S)-2-Aminopropanoyl]piperazine-1-carbonyl]-3-chlorophenyl]-1-methyl-5-[1-(pyridin-3-ylmethyl)-3-(trifluoromethyl)pyrazol-4-yl]imidazole-2-carboxamide trihydrochloride]  834 nM
3. CCc1cc(NC(=O)c2ncc(-c3cn(CC(F)F)nc3C(F)(F)F)n2C)ccc1C(=O)N1CCN(C(=O)[C@@H]2CCNC2)CC1 [Example 156, 5-[1-(2,2-difluoroethyl)-3-(trifluoromethyl)pyrazol-4-yl]-N-[3-ethyl-4-[4-[(3R)-pyrrolidine-3-carbonyl]piperazine-1-carbonyl]phenyl]-1-methylimidazole-2-carboxamide;formic acid]  758 nM
4. CCc1cc(NC(=O)c2ncc(-c3cn(CC#N)nc3C(F)(F)F)n2C)ccc1C(=O)N1CCN(C(=O)C2CCN(C)CC2)CC1 [Example 127, 5-[1-(cyanomethyl)-3-(trifluoromethyl)pyrazol-4-yl]-N-[3-ethyl-4-[4-(1-methylpiperidine-4-carbonyl)piperazine-1-carbonyl]phenyl]-1-methylimidazole-2-carboxamide;formic acid]  681 nM
5. C#CCn1cc(-c2cnc(C(=O)Nc3ccc(C(=O)N[C@H]4C[C@@H](N)C4)c(Cl)c3)n2C)c(C(F)(F)F)n1 [Example 93, N-[4-[(3-aminocyclobutyl)carbamoyl]-3-chlorophenyl]-1-methyl-5-[1-prop-2-ynyl-3-(trifluoromethyl)pyrazol-4-yl]imidazole-2-carboxamide;hydrochloride]  557 nM
6. Cn1c(-c2cn(CC#N)nc2C(F)(F)F)cnc1C(=O)Nc1ccc(C(=O)N[C@H]2C[C@@H](NC(=O)[C@H]3CC[C@@H](N)C3)C2)c(Cl)c1 [Example 96, N-[4-[[3-[[(1S,3R)-3-aminocyclopentanecarbonyl]amino]cyclobutyl]carbamoyl]-3-chlorophenyl]-5-[1-(cyanomethyl)-3-(trifluoromethyl)pyrazol-4-yl]-1-methylimidazole-2-carboxamide;2,2,2-trifluoroacetic acid]  498 nM
7. CCn1cc(-c2cnc(C(=O)Nc3ccc(C(=O)N4CCN(C(=O)C5CCNCC5)CC4)c(Br)c3)n2C)c(C(F)(F)F)n1 [Example 374, N-(3-bromo-4-(4-(piperidine-4-carbonyl)piperazine-1-carbonyl)phenyl)-5-(1-ethyl-3-(trifluoromethyl)-1H-pyrazol-4-yl)-1-methyl-1H-imidazole-2-carboxamide hydrochloride]  495 nM
8. CNC1CCN(C(=O)c2ccc(NC(=O)c3ncc(-c4cn(C5CC5)nc4C(F)(F)F)n3C)cc2Cl)CC1 [Example 366, N-(3-chloro-4-(4-(methylamino)piperidine-1-carbonyl)phenyl)-5-(1-cyclopropyl-3-(trifluoromethyl)-1H-pyrazol-4-yl)-1-methyl-1H-imidazole-2-carboxamide formate]  483 nM
9. Cn1c(-c2cn(CC(F)F)nc2C(F)F)cnc1C(=O)Nc1ccc(C(=O)N2CCN(C(=O)[C@H]3[C@@H]4CNC[C@@H]43)CC2)c(Cl)c1 [Example 364, N-(4-(4-((1R,5S,6r)-3-azabicyclo[3.1.0]hexane-6-carbonyl)piperazine-1-carbonyl)-3-chlorophenyl)-5-(1-(2,2-difluoroethyl)-3-(difluoromethyl)-1H-pyrazol-4-yl)-1-methyl-1H-imidazole-2-carboxamide formate]  482 nM
10. Cn1c(-c2cn(CC#N)nc2C(F)(F)F)cnc1C(=O)Nc1ccc(C(=O)N2CCN(C(=O)[C@H]3C[C@H](N)C3)CC2)c(Cl)c1 [Example 355, N-[4-[4-(3-aminocyclobutanecarbonyl)piper-azine-1-carbonyl]-3-chlorophenyl]-5-[1-(cyanomethyl)-3-(trifluoromethyl)pyrazol-4-yl]-1-methylimidazole-2-carboxamide;trihydrochloride]  464 nM
11. Cn1c(-c2cn(CC#N)nc2C(F)(F)F)cnc1C(=O)Nc1ccc(C(=O)N[C@H]2C[C@@H](NC(=O)N3CCCC(N)C3)C2)c(Cl)c1 (stereo partly shown) [Example 326, 3-amino-N-[3-[[2-chloro-4-[[5-[1-(cyanomethyl)-3-(trifluoromethyl)pyrazol-4-yl]-1-methyl-imidazole-2-carbonyl]amino]benzoyl]amino]cyclobutyl]piperidine-1-carboxamide; formic acid]  411 nM
12. Cn1c(-c2cn(C3CC3(F)F)nc2C(F)(F)F)cnc1C(=O)Nc1ccc(C(=O)NCCCCNC(=O)OC(C)(C)C)c(Cl)c1 (stereo not shown) [Example 314, tert-butyl (4-(2-chloro-4-(5-(1-(2,2-difluorocyclopropyl)-3-(trifluoromethyl)-1H-pyrazol-4-yl)-1-methyl-1H-imidazole-2-carboxamido)benzamido)butyl) carbamate]  388 nM
13. Cn1c(-c2cn(CCC(F)(F)F)nc2C(F)(F)F)cnc1C(=O)Nc1ccc(C(=O)N2CCN(C(=O)C3CCNCC3)CC2)c(Cl)c1 [Example 98, N-[3-chloro-4-[4-(piperidine-4-carbonyl)piperazine-1-carbonyl]phenyl]-1-methyl-5-[3-(trifluoromethyl)-1-(3,3,3-trifluoropropyl)pyrazol-4-yl]imidazole-2-carboxamide;hydrochloride]  362 nM
14. C#CCn1cc(-c2cnc(C(=O)Nc3ccc(C(=O)N4CCN(C(=O)C5CCN(C)CC5)CC4)c(Cl)c3)n2C)c(C(F)(F)F)n1 [Example 13, N-(3-chloro-4-(4-(1-methylpiperidine-4-carbonyl)piperazine-1-carbonyl)phenyl)-1-methyl-5-(1-(prop-2-yn-1-yl)-3-(trifluoromethyl)-1H-pyrazol-4-yl)-1H-imidazole-2-carboxamide]  335 nM
15. Cn1c(-c2cn(C3CC3(F)F)nc2C(F)(F)F)cnc1C(=O)Nc1ccc(C(=O)N[C@H]2[C@@H]3CN(C(=O)N4CCN(CCCN)CC4)C[C@@H]32)c(Cl)c1 (stereo partly drawn) [Example 264, N-(4-(((1R,5S,6s)-3-(4-(3-aminopropyl)piperazine-1-carbonyl)-3-azabicyclo[3.1.0]hexan-6-yl)carbamoyl)-3-chlorophenyl)-5-(1-(2,2-difluorocyclopropyl)-3-(trifluoromethyl)-1H-pyrazol-4-yl)-1-methyl-1H-imidazole-2-carboxamide]  325 nM
16. Cn1c(-c2cn(CC3CC3)nc2C(F)(F)F)cnc1C(=O)Nc1ccc(C(=O)N2CCN(C(=O)C3CCNCC3)CC2)c(Cl)c1 [Example 112, N-[3-chloro-4-[4-(piperidine-4-carbonyl)piperazine-1-carbonyl]phenyl]-5-[1-(cyclopropylmethyl)-3-(trifluoromethyl)pyrazol-4-yl]-1-methylimidazole-2-carboxamide;hydrochloride]  274 nM
17. CCn1cc(-c2cnc(C(=O)Nc3ccc(C(=O)N4CCC(CCN)CC4)c(Cl)c3)n2C)c(C(F)(F)F)n1 [Example 239, N-(4-(4-(2-aminoethyl)piperidine-1-carbonyl)-3-chlorophenyl)-5-(1-ethyl-3-(trifluoromethyl)-1H-pyrazol-4-yl)-1-methyl-1H-imidazole-2-carboxamide hydrochloride]  273 nM
18. Cn1c(-c2cn(CC(F)F)nc2C(F)(F)F)cnc1C(=O)Nc1ccc(C(=O)N[C@H]2[C@@H]3CN(C(=O)N[C@H]4C[C@@H](N)C4)C[C@@H]32)c(Cl)c1 [Example 177, (1R,5S,6s)-N-(cis-3-aminocyclobutyl)-6-(2-chloro-4-(5-(1-(2,2-difluoroethyl)-3-(trifluoromethyl)-1H-pyrazol-4-yl)-1-methyl-1H-imidazole-2-carboxamido)benzamido)-3-azabicyclo[3.1.0]hexane-3-carboxamide]  229 nM
19. C#CCn1cc(-c2cnc(C(=O)Nc3ccc(C(=O)N4CCN(C(=O)NCC5(O)CNC5)CC4)c(Cl)c3)n2C)c(C(F)(F)F)n1 [Example 52, 4-(2-chloro-4-(1-methyl-5-(1-(prop-2-yn-1-yl)-3-(trifluoromethyl)-1H-pyrazol-4-yl)-1H-imidazole-2-carboxamido)benzoyl)-N-((3-hydroxyazetidin-3-yl)methyl)piperazine-1-carboxamide hydrochloride]  192 nM
20. C=C(F)Cn1cc(-c2cnc(C(=O)Nc3ccc(C(=O)N[C@H]4[C@@H]5CN(C(=O)N[C@@H]6CNC[C@H]6O)C[C@@H]54)c(Cl)c3)n2C)c(C(F)(F)F)n1 [Example 176, (1R,5S,6s)-6-(2-chloro-4-(5-(1-(2-fluoroallyl)-3-(trifluoromethyl)-1H-pyrazol-4-yl)-1-methyl-1H-imidazole-2-carboxamido)benzamido)-N-(trans-4-hydroxypyrrolidin-3-yl)-3-azabicyclo[3.1.0]hexane-3-carboxamide Formate]  155 nM

Same assay, conditions: Acinetobacter baumannii ATCC 17961, Iso-Sensitest broth, read-out: ATCC 17961 IC90

In order of falling IC90:
1. rac-4-(2-chloro-4-(5-(1- cyclopropyl-3-(trifluoromethyl)- 1H-pyrazol-4-yl)-1-methyl-1H- imidazole-2- carboxamido)benzoyl)-N- ((1s,3s)-3- (methylamino)cyclobutyl)pipera- zine-1-carboxamide formate [Example 256]  313 nM
2. N-(3-amino-3- methylcyclobutyl)-4-[2-chloro- 4-[[5-[1-cyclopropyl-3- (trifluoromethyl)pyrazol-4-yl]- 1-methylimidazole-2- carbonyl]amino]benzoyl]pipera- zine-1-carboxamide;formic acid [Example 238]  273 nM
